According to patent US8287921B1, “Formulations against cutaneous leishmaniasis” (priority 2011, dated 2012):
In brackets after ≈: the same amount, converted by molar mass.

What was measured:
Leishmania promastigotes = assay: In vitro leishmanicidal assay; format: cell-based; settings: 72 hrs, 22-25° C.
Experimental: Leishmania promastigotes were grown in bulk early in modified NNN biphasic medium using normal physiological saline. Leishmania parasite promastigotes were cultured with RPMI 1640 medium (Sigma, St. Louis, USA) supplemented with 10% heat inactivated foetal Calf serum (FCS) (PAA Laboratories GmbH, Austria) Parasites at log phase were centrifuged at 2000 rpm for 10 minutes, and washed three times with saline at same speed and time. Parasites were diluted with fresh culture medium to a final density of 1×10^6 cells/ml.
In a 96-well micro titer plate, medium was added in different wells, 20 μl of the experimental compound was added in medium and serially diluted. 100 μl of parasite culture was added in all wells. Two rows were left for negative and positive control. Negative controls receives medium while the positive control contains varying concentrations of standard antileishmanial compound e.g., Amphotericin B (MP Biomedical Inc.), Pantamidine (ICN Biomedical Inc.). The plate was incubated between 22-25° C. for 72 hrs. […] All assays were run in duplicate (5).

[1] = system: 3T3 cell lines (Normal Fibroblast cell); assay: Cytotoxic activity against 3T3 cell lines (MTT assay); format: cell-based, Mouse; settings: 72 h, 1-100 μg/mL
Experimental: Cytotoxic activity of compounds was evaluated in 96-well flat-bottomed micro plates by using the standard MTT (3-[4,5-dimethylthiazole-2-yl]-2,5-diphenyl-tetrazolium bromide) colorimetric assay1. For this purpose, 3T3 (Mouse fibroblast) were cultured in Dulbecco's Modified Eagle's Medium, supplemented with 5% of foetal bovine serum (FBS), 100 IU/mL of penicillin and 100 μg/mL of streptomycin in 25 cm^3 flask, and kept in 5% CO2 incubator at 37° C. Exponentially growing cells were harvested, counted with haemocytometer and diluted with a particular medium. Cell culture with the concentration of 1×10^5 cells/mL was prepared and introduced (100 μL/well) into 96-well plates. After overnight incubation, medium was removed and 200 μL of fresh medium was added with different concentrations of compounds (1-100 μg/mL). After 72 h, 50 μL MTT (2 mg/mL) was added to each well and incubated further for 4 hrs. Subsequently, 100 μL of DMSO was added to each well. The extent of MTT reduction to formazan within cells was calculated by measuring the absorbance at 570 nm, using a microplate ELISA reader (Spectra Max plus, Molecular Devices, CA, USA). The cytotoxicity was recorded as concentration causing 50% growth inhibition for 3T3 cells.

N=C(N)c1ccc(OCCCCCOc2ccc(C(=N)N)cc2)cc1 [Pentamidine]
IC50 (Leishmania promastigotes; Leishmania, read-out: In vitro Leishmanicidal activity IC50 ± S.D): 5.13 ± 0.02 mg/L (≈ 15.1 µM)

C[C@@H]1[C@H](O)[C@@H](C)/C=C/C=C/C=C/C=C/C=C/C=C/C=C/[C@H](O[C@@H]2O[C@H](C)[C@@H](O)[C@H](N)[C@@H]2O)C[C@@H]2O[C@](O)(C[C@@H](O)C[C@@H](O)[C@H](O)CC[C@@H](O)C[C@@H](O)CC(=O)O[C@H]1C)C[C@H](O)[C@H]2C(=O)O [Amphotericin B]
In vitro Leishmanicidal activity IC50 ± S.D (Leishmania promastigotes): 0.12 ± 0.10 mg/L

C[C@@H]1C[C@@H]([C@H](O)CC2CC(=O)NC(=O)C2)C(=O)[C@@H](C)C1 [Cyclohexamide]
IC50 ± S.D. 3T3 cell lines [1]: 0.26 ± 0.04 mg/L (≈ 0.924 µM)
